Data from ChEMBL document CHEMBL1155502, “Modulation of 11beta-hydroxysteroid dehydrogenase type 1 activity by 1,5-substituted 1H-tetrazoles” (Bioorg Med Chem Lett, 2010).

assay: Metabolic stability in human liver microsomes assessed as compound remaining after 30 mins; assay type: ADME, Microsome; conditions: read-out: Stability

remaining at 0.5 h [%]	SMILES
73	O=C(CCc1nnnn1C1CC1)c1ccccc1
34	O=C(CCc1nnnn1-c1ccc(Cl)cc1)c1ccccc1
29	O=C(CCn1nnnc1-c1ccccc1)c1ccccc1
4	O=C(COc1nnnn1-c1ccccc1)c1ccccc1
14	O=C(CCc1nnnn1C1CCCCC1)c1ccccc1
11	O=C(CCc1nnnn1-c1ccccc1)C1CCCCC1
53	O=C(CCn1nnnc1-c1ncccn1)c1ccccc1
37	N#Cc1ccc(-n2nnnc2CCC(=O)c2ccccc2)cc1
88	O=C(CCc1nnnn1-c1ccccc1)c1ccccc1
20	O=C(CCn1nnnc1-c1cccc(Cl)c1)c1ccccc1
4	CC(C)(C)C(=O)CS(=O)(=O)c1nnnn1-c1ccccc1
11	O=C(CCn1nnnc1-c1ccc2c(c1)OCO2)c1ccccc1
25	CC(C)(C)C(=O)C[S+]([O-])c1nnnn1-c1ccccc1 (configuration not stated)
42	COc1ccccc1-n1nnnc1CCC(=O)c1ccccc1
8	O=C(CCc1nnnn1-c1ccccc1)c1cccc(Cl)c1
81	O=C(CCn1nnnc1-c1cccnc1)c1ccccc1

remaining at 0.5 h [%]	SMILES
22	Cc1ccccc1-n1nnnc1CCC(=O)c1ccccc1
31	O=C(CCn1nnnc1-c1cnccn1)c1ccccc1
21	O=C(CCc1nnnn1-c1ccccc1)c1cccc(F)c1
9	COc1ccccc1-c1nnnn1CCC(=O)c1ccccc1
6	COc1cccc(-n2nnnc2CCC(=O)c2ccccc2)c1
6	O=C(CCn1nnnc1-c1ccsc1)c1ccccc1
12	COc1ccc(-n2nnnc2CCC(=O)c2ccccc2)cc1
14	COc1cccc(C(=O)CCc2nnnn2-c2ccccc2)c1
1	O=C(CCc1nnnn1C1CCc2ccccc21)c1ccccc1 (configuration not stated)
2	Cc1ccc(-n2nnnc2CCC(=O)c2ccccc2)cc1
81	O=C(CCc1nnnn1-c1cccnc1)c1ccccc1
33	O=C(CCc1nnnn1Cc1ccccc1)c1ccccc1
2	Cc1cccc(-n2nnnc2CCC(=O)c2ccccc2)c1
5	O=C(CCn1nnnc1-c1ccccc1Cl)c1ccccc1
7	O=C(CCc1nnnn1C1CCCc2ccccc21)c1ccccc1 (configuration not stated)
18	COc1ccc(-c2nnnn2CCC(=O)c2ccccc2)cc1
